This note sets out measurements from PMC6366404, “4-(3-Nitrophenyl)thiazol-2-ylhydrazone derivatives as antioxidants and selective hMAO-B inhibitors: synthesis, biological activity and computational analysis” (Journal of Enzyme Inhibition and Medicinal Chemistry, 2019).

Test [1] in a line: Metal chelating activity on ferrous ions. Conditions: ferrozine.
Test [2] concerns the target T1, hMAO-B (Homo sapiens, UniProt P27338).
T1 sequence (P27338 1-520): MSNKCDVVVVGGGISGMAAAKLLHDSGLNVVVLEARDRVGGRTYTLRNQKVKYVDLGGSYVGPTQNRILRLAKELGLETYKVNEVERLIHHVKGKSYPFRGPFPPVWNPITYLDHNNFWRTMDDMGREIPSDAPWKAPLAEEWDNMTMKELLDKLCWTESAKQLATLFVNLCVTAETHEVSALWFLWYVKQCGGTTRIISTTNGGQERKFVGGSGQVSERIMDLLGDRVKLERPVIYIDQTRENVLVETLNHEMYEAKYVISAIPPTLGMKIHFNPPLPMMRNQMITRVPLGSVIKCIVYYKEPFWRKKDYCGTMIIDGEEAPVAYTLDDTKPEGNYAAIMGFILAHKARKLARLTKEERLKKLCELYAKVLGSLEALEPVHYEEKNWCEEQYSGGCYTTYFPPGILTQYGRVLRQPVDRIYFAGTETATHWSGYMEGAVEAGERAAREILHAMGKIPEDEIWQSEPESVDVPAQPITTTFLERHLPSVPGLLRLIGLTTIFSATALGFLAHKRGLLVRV
Briefly: hMAO-B inhibition, IC50 determination (kynuramine fluorescence). Format: biochemical. How it is done: The procedure for the measurement of IC50 values for the inhibition of MAO has been reported. The enzyme reactions were prepared to a volume of […] in potassium phosphate buffer at pH 7.4 (100 mM, made isotonic with KCl) and contained kynuramine (50 μM) and the test inhibitors (0.003–100 µM). Stock solutions of the test inhibitors were prepared in DMSO and added to the reactions to yield 4% DMSO. The enzyme reactions were initiated with the addition of recombinant hMAO-A (0.0075 mg protein/mL) or hMAO-B (0.015 mg protein/mL) and incubated for 20 min at 37 °C. At endpoint, the reactions were terminated with 80 µL sodium hydroxide (2N) and the fluorescence of 4-hydroxyquinoline, the oxidation product of kynuramine, was measured (λex = 310; λem = 400 nm)[33]. 4-Hydroxyquinoline was quantified with a calibration curve (0.047–1.56 μM) and the rate of 4-hydroxyquinoline formation was fitted to the one site competition model of the Prism 5 software package (GraphPad). From the resulting sigmoidal plots, the IC50 values were estimated. All enzyme reactions were carried out in triplicate and IC50 values are given as the mean ± standard deviation (SD).

A short description of test [3]: ABTS radical cation scavenging activity.
Test [4] concerns the target T1, hMAO-B. The experiment in a line: Lineweaver-Burk plots, mode of inhibition and Ki. Format: biochemical. On the procedure: To construct Lineweaver–Burk plots, the enzyme reactions were carried out to a volume of 500 µL and the concentration of MAO-B was 0.015 mg protein/mL. All enzyme reactions and activity measurements were carried out as described above for the dialysis experiments. The first plot was constructed in the absence of inhibitor, while the remaining five plots were constructed in the presence of the following concentrations: ¼ × IC50, ½ × IC50, ¾ × IC50, 1 × IC50 and 1¼ × IC50. For each line, kynuramine was used at concentrations of 15–250 μM. The Ki value was estimated from a plot of the slopes of the Lineweaver–Burk plots versus inhibitor concentration (x-axis intercept equals –Ki).
To provide further support for the reversibility of MAO-B inhibition by compounds 4 and 37, a set of Lineweaver–Burk plots was constructed for each inhibitor at the following inhibitor concentrations: ¼ × IC50, ½ × IC50, ¾ × IC50, 1 × IC50, and 1¼ × IC50. The substrate, kynuramine, was used at 15–250 µM for each line. […] The lines of the plots intersect on the y-axis and a replot of the slopes versus inhibitor concentration yields a linear line, from which the enzyme-inhibitor dissociation constant (Ki) was estimated (Ki = −x-axis intercept).

Test [5] in a line: Phosphomolybdenum assay (PhosphoMo), total antioxidant activity. The conditions noted are these: concentration at which absorbance was 0.5.
Test [6] is described as follows: DPPH radical scavenging activity.
Test [7] can be described thus: FRAP (ferric reducing antioxidant power) assay.

Structures are written as SMILES.

As to `CC(=NNc1nc(-c2cccc([N+](=O)[O-])c2)cs1)c1cccs1` [Compound 4, 1-(4-(3-Nitrophenyl)thiazol-2-yl)-2-(1-(thiophen-2-yl)ethylidene)hydrazine], the IC50 in test [1] was above 5000 µM; in test [2], 0.0018 µM; in test [3] it was 1040 ± 10 µM; in test [6], 1170 ± 10 µM. For the same compound, the “Selectivity index (SI) for the MAO-B isoform” value in test [2] (ratio (IC50 hMAO-A)/(IC50 hMAO-B)) was 922. In test [4], the affinity corresponds to a Ki of 0.0026 µM. In test [4] (Lineweaver-Burk plots), the “Mode of MAO-B inhibition” value is “competitive”. In addition, the EC50 in test [5] is 1680 ± 90 µM; in test [7], 530 ± 20 µM.
